The values below come from patent US10519098B2, “Aromatic derivatives as anti-malarial” (Council of Scientific & Industrial Research, priority 2014, dated 2019).

Each structure is given as a SMILES string. “And” between values parts separate entries of the source, which are not always exact repeats. Identical values can stand only once. Like-named read-outs stand apart in the source and are kept apart here.

For data set [1], the system named is chloroquine resistant P. yoelii (N-67). Put plainly: In vivo evaluation in P. yoelii (N-67) Swiss mice model. Particulars: one value per mouse. Here is the method:
The molecules were tested at 100 mg/kg dose through intraperitoneal route. The mice received infective inoculum containing 1×10^5 parasites on day 0 and then received four doses of test compound on day 0-3 once daily. Five infected mice were used for each molecule and five infected mice were kept as untreated control. Arteether (5 mg/kg, ×4, intramuscular) was used as positive control. Thin blood smear from tail blood of each mouse was prepared on day 4. The blood smears were fixed in methanol, stained with Giemsa's stain and examined under the light microscope (100×oil immersion). At least 10-15 fields per smear were scanned to obtain percent parasitaemia in treated as well as untreated mice. If significant suppression in percent parasitaemia is observed on day 4, the monitoring continues up to day 28.

The nature of another data set: in vitro. To be noted: monkey. Here is the method: (§1) The cells were incubated with test sample dilutions for 72 h and MTT was used as reagent for detection of cytotoxicity. Podophyllotoxin (SIGMA) was used as the standard reference drug.
Data set [2] relates to Chloroquine-resistant (K1) strain of P. falciparum. Put plainly: Malaria SYBR Green I-based fluorescence (MSF) assay, K1 strain. It is filed as cell-based. To be noted: Plasmodium falciparum. As for the experimental part: (§2) The stock (5 mg/mL or 10 mM) solutions of extracts were prepared in DMSO and required dilutions were made in culture medium.
(§3) Two-fold serial dilutions of test samples were made in 96 well plates and incubated with 1.0% parasitized cell suspension containing 0.8% parasitaemia (Asynchronous culture with more than 80% ring stages). The plates were incubated at 37° C. in CO2 incubator in an atmosphere of 5% CO2 and air mixture. 72 hours later 100 μL of lysis buffer containing 2× concentration of SYBR Green-I (Invitrogen) was added to each well and incubated for one hour at 37° C. The plates were examined at 485±20 nm of excitation and 530±20 nm of emission for relative fluorescence units (RFUs) per well using the fluorescence plate reader (FLX800, BIOTEK). IC50 values were obtained by Logit regression analysis of dose response curves (Singh et al. 2011).

The subject of data set [3] is Chloroquine-sensitive (3D7) strain of P. falciparum. In words: Malaria SYBR Green I-based fluorescence (MSF) assay, 3D7 strain. Particulars: Plasmodium falciparum. The data set is classed as cell-based. As for the experimental part:
as §2, §3

Data set [4] deals with Vero cell line (C1008; Monkey kidney fibroblast). Put plainly: in vitro. Particulars: 72 h. Here is the method: as §1
Where [5] appears, read: 100 mg/kg intraperitoneal, four doses day 0-3 once daily.
Setting [6] is: K1, range given for listed compounds, read-out: IC50 values against K1 culture.
Setting [7] is: P. falciparum K1, 72 hours incubation, read-out: IC50 against K1.
Setting [8] is: 3D7, range given for listed compounds, read-out: IC50 values against 3D7 culture.
The mark [9] stands for this setting: P. falciparum 3D7, 72 hours incubation, read-out: IC50 against 3D7.

Broadly, the IC50 is the midpoint of a concentration-inhibition curve. For the molecule `COc1ccc([C@@H](COC(=O)/C=C/c2cc(OC)c(OC)c(OC)c2)OC(=O)/C=C/c2cc(OC)c(OC)c(OC)c2)cc1OC` [Compound 56, (S)-1-(3,4-dimethoxyphenyl)ethane-1,2-diyl(2E,2′E)-bis(3-(3,4,5-trimethoxyphenyl)acrylate)], the “% parasitaemia on day 4 in 5 individual mice” value (“% parasitaemia” for short) in data set [1] (setting [5]) is 06.06% and 08.31% and 16.23% and 13.92% and 11.13%. For the same molecule, the CC50 at 72 h in the data set “in vitro” was determined as 55.7 µM. In addition, the IC50 in data set [2] (setting [6]) was 1.5 to 4 µM; in data set [2] (setting [7]), 2.62 µM; in data set [3] (setting [8]), 2 to 7 µM; in data set [3] (setting [9]), 2.34 µM.

By melting point is commonly meant the temperature, or range, at which the solid turns liquid. In turn, `COc1ccc([C@@H](CNC(=O)/C=C/c2ccccc2)OC(=O)CCc2ccccc2)cc1OC` [Compound 49, (S)-2-cinnamamido-1-(3,4-dimethoxyphenyl)ethyl 3-phenylpropanoate] showed a melting point of 101 to 103 °C. The molecule also had a CC50 in data set [4] of 36.9 µM. In addition, the IC50 in data set [2] (setting [7]) is above 10 µM. The IC50 in data set [3] (setting [9]) was above 10 µM.

In turn, `CCCC(=O)O[C@H](CNC(=O)/C=C/c1ccccc1)c1ccc(OC)c(OC)c1` [Compound 52, (S)-2-cinnamamido-1-(3,4-dimethoxyphenyl)ethyl butyrate] came in with a CC50 in data set [4] of 29.9 µM. Besides, the IC50 in data set [2] (setting [7]) and in data set [3] (setting [9]) was above 10 µM throughout.

The molecule `COc1ccc([C@@H](CNC(=O)CCc2ccccc2)OC(=O)/C=C/c2ccccc2)cc1OC` [Compound 50, (S)-1-(3,4-dimethoxyphenyl)-2-(3-phenylpropanamido)ethylcinnamate] registered a melting point of 112 to 114 °C. For the same molecule, the CC50 in data set [4] was determined as 44.3 µM. Further, the IC50 in data set [2] (setting [7]) was above 10 µM. In data set [3] (setting [9]), the IC50 is above 10 µM.

Take `COc1ccc([C@@H](CNC(=O)/C=C/c2cc(OC)c(OC)c(OC)c2)OC(=O)/C=C/c2cc(OC)c(OC)c(OC)c2)cc1OC` [Compound 41, (S)-1-(3,4-dimethoxyphenyl)-2-((E)-3-(3,4,5-trimethoxyphenyl)acrylamido)ethyl (E)-3-(3,4,5-trimethoxyphenyl)acrylate]: the melting point fell in the range of 138 to 140 °C. The “% parasitaemia” value in data set [1] (setting [5]) is 11.78% and 11.93% and 11.12% and 11.26% and 12.13%. The same molecule showed a CC50 at 72 h in “in vitro” of 88 µM. For the same molecule, the IC50 in data set [2] (setting [6]) is 1.5 to 4 µM. Besides, the IC50 in data set [2] (setting [7]) turned out to be 1.78 µM. Moreover, the IC50 in data set [3] (setting [8]) lay within 2 to 7 µM. Besides, the IC50 in data set [3] (setting [9]) was 3.16 µM.

As for `CCO[C@H]1O[C@@H]2O[C@@]3(C)CC[C@H]4[C@H](C)CC[C@@H]([C@H]1C)[C@@]24OO3` [Arteether, reference compound], the “% parasitaemia” value in data set [1] (positive control, 5 mg/kg ×4 intramuscular) worked out at 0.0%.

Regarding `COc1ccc([C@H](CNC(=O)/C=C/c2cc(OC)c(OC)c(OC)c2)OC(=O)/C=C/c2cc(OC)c(OC)c(OC)c2)cc1OC` [Compound 42, (R)-1-(3,4-dimethoxyphenyl)-2-((E)-3-(3,4,5-trimethoxyphenyl)acrylamido)ethyl (E)-3-(3,4,5-trimethoxyphenyl)acrylate], the melting point was 138 to 140 °C. Besides, the “% parasitaemia” value in data set [1] (setting [5]) is 14.07% and 12.50% and 15.10% and 12.16% and 11.46%. This molecule also gave a CC50 at 72 h in the data set “in vitro” of 88.9 µM. Also, the IC50 in data set [2] (setting [6]) is 1.5 to 4 µM. Besides, in data set [2] (setting [7]), the IC50 turned out to be 2.07 µM. The concentration for half-maximal inhibition (IC50) in data set [3] (setting [8]) was 2 to 7 µM. The IC50 in data set [3] (setting [9]) is 2.28 µM.

On to `CCCC(=O)NC[C@@H](OC(=O)/C=C/c1ccccc1)c1ccc(OC)c(OC)c1` [Compound 51, (S)-2-butyramido-1-(3,4-dimethoxyphenyl)ethyl cinnamate], for which the melting point was in the range of 93 to 94 °C. This molecule also registered a CC50 in data set [4] of 42.4 µM. The IC50 in data set [2] (setting [7]) was above 10 µM. For the same molecule, in data set [3] (setting [9]), the IC50 is above 10 µM.

In the case of `COc1cc(/C=C/C(=O)NC[C@@H](OC(=O)/C=C/c2cc(OC)c(OC)c(OC)c2)c2cc(OC)c(OC)c(OC)c2)cc(OC)c1OC` [Compound 58, (S)-1-(3,4,5-trimethoxyphenyl)-2-((E)-3-(3,4,5-trimethoxyphenyl)acrylamido)ethyl (E)-3-(3,4,5-trimethoxyphenyl)acrylate], the melting point fell in the range of 67 to 69 °C. Besides, the “% parasitaemia” value in data set [1] (setting [5]) was 10.10% and 10.16% and 13.50% and 07.50% and 11.92%. Besides, the CC50 at 72 h in “in vitro” was determined as 42.7 µM. For the same molecule, the IC50 in data set [2] (setting [6]) lay within 1.5 to 4 µM. For the same molecule, the IC50 in data set [2] (setting [7]) was 1.93 µM. Further, in data set [3] (setting [8]), the IC50 fell in the range of 2 to 7 µM. In addition, the IC50 in data set [3] (setting [9]) is 1.89 µM.

For the molecule `O=C(/C=C/c1ccccc1)OC[C@H](OC(=O)/C=C/c1ccccc1)c1ccc2ccccc2c1` [Compound 54, (R)-1-(naphthalen-2-yl)ethane-1,2-diyl (2E,2′E)-bis (3-phenylacrylate)], the melting point fell in the range of 123 to 124 °C. In data set [4], this molecule registered a CC50 of 181 µM. The IC50 in data set [2] (setting [7]) was 2.15 µM. Also, in data set [3] (setting [9]), the IC50 is above 10 µM.

The molecule `COc1ccc([C@H](CNC(=O)c2ccccc2)OC(=O)c2ccccc2)cc1OC` [Compound 40, (R)-2-benzamido-1-(3,4-dimethoxyphenyl) ethyl benzoate] gave a melting point of 128 to 130 °C. For the same molecule, the CC50 at 72 h in “in vitro” is 104 µM. Further, in data set [2] (setting [7]), the half-maximal inhibitory concentration (IC50) was above 10 µM. Moreover, the IC50 in data set [3] (setting [9]) stood at 3.66 µM.

For the molecule `Cc1ccc([C@H](CNC(=O)/C=C/c2ccccc2)OC(=O)/C=C/c2ccccc2)cc1` [Compound 30, (R)-2-cinnamamido-1-(p-tolyl) ethyl cinnamate], the melting point lay within 139 to 141 °C. The molecule further came in with a CC50 at 72 h in “in vitro” of 49.4 µM. In addition, in data set [2] (setting [7]), the IC50 is above 10 µM. In addition, the IC50 in data set [3] (setting [9]) was 6.97 µM.

Regarding `O=C(/C=C/c1ccccc1)OC[C@@H](OC(=O)/C=C/c1ccccc1)c1ccc2ccccc2c1` [Compound 53, (S)-1-(naphthalen-2-yl)ethane-1,2-diyl (2E,2′E)-bis(3-phenylacrylate)], the melting point is 120 to 121 °C. In data set [4], this molecule had a CC50 above 200 µM. In addition, the IC50 in data set [2] (setting [7]) was above 10 µM. The IC50 in data set [3] (setting [9]) was above 10 µM.

`COc1ccc([C@@H](CNC(=O)/C=C/c2ccc(O[Si](C)(C)C(C)(C)C)cc2)OC(=O)/C=C/c2ccc(O[Si](C)(C)C(C)(C)C)cc2)cc1OC` [Compound 48, (S)-2-((E)-3-(4-((tert-butyldimethylsilyl)oxy)phenyl)acrylamido)-1-(3,4-dimethoxyphenyl)ethyl (E)-3-(4-((tert-butyldimethylsilyl)oxy)phenyl)acrylate] came in with a melting point of 63 to 65 °C. The molecule also gave a CC50 at 72 h in “in vitro” of 40.8 µM. Also, the IC50 in data set [2] (setting [7]) came to 3.37 µM. For the same molecule, the IC50 in data set [3] (setting [9]) came to 7.92 µM.

In turn, `COc1ccc([C@H](CNC(=O)CCc2ccccc2)OC(=O)CCc2ccccc2)cc1OC` [Compound 44, (R)-1-(3,4-dimethoxyphenyl)-2-(3-phenylpropanamido)ethyl 3-phenyl propanoate] yielded a melting point of 77 to 78 °C. The CC50 at 72 h in the data set “in vitro” was found to be 73.2 µM. Moreover, the IC50 in data set [2] (setting [7]) is above 10 µM. Also, in data set [3] (setting [9]), the IC50 came to 5.86 µM.

The molecule `COc1ccc([C@@H](CNC(=O)c2ccccc2)OC(=O)c2ccccc2)cc1OC` [Compound 39, (S)-2-benzamido-1-(3,4-dimethoxyphenyl) ethyl benzoate] returned a melting point of 129 to 131 °C. For the same molecule, the CC50 at 72 h in “in vitro” came to 8.16 µM. Besides, the IC50 in data set [2] (setting [7]) is above 10 µM. Also, in data set [3] (setting [9]), the IC50 worked out at 6.67 µM.

`COc1ccc([C@@H](CNC(=O)CCc2ccccc2)OC(=O)CCc2ccccc2)cc1OC` [Compound 43, (S)-1-(3,4-dimethoxyphenyl)-2-(3-phenylpropanamido)ethyl 3-phenyl propanoate] displayed a melting point of 82 to 84 °C. In “in vitro”, this molecule displayed a CC50 at 72 h of 39.3 µM. For the same molecule, the IC50 in data set [2] (setting [7]) was above 10 µM. In addition, the 50% inhibitory concentration (IC50) in data set [3] (setting [9]) amounted to 2.86 µM.

The molecule `O=C(/C=C/c1ccccc1)NC[C@@H](OC(=O)/C=C/c1ccccc1)c1ccc2c(c1)OCO2` [Compound 33, (S)-1-(benzo[d][1,3]dioxol-5-yl)-2-cinnamamidoethyl cinnamate] came in with a melting point of 186 to 190 °C. In “in vitro”, the CC50 at 72 h was found to be 190 µM. The IC50 in data set [2] (setting [7]) was above 5 µM. In addition, the IC50 in data set [3] (setting [9]) was above 5 µM.
